Data on one compound can be found in paper PMC7462607 (eLife, 2020).

In assay [1] the target is T1, CDK12/CCNK with DDB1-CUL4-RBX1 (Homo sapiens, UniProt Q9NYV4).
T1 construct: made in house; host or cells: 293F cells (CDK12/CCNK, UBA1, UBE2G1, UBE2D3, CUL4A/RBX1); Sf9 (His-DDB1); E. coli BL21(DE3) (His-ubiquitin)
Put plainly: In vitro ubiquitination of CCNK. The settings on record: E1, E2, E3 and HQ461 present. In kind it is biochemical. The protocol: Human Ubiquitin ORF was cloned into pET28a vector with an N-terminal 6xHis tag. The resulting pET28a-6xHis-Ub plasmid was transformed into the E. coli strain BL21 (DE3) and grown at 37°C until OD600 reached ~0.8. His-Ub expression was induced overnight by 0.5 mM IPTG at 18°C. Cells were collected by centrifugation at 4000 g and resuspended with lysis buffer containing 50 mM Tris-HCl, pH 7.5, 500 mM NaCl, 20 mM imidazole, 5% glycerol. Cell lysis was performed by French Press. After 20,000 g centrifugation for 1 hr at 4°C, the supernatant was incubated with Ni-NTA resin. After extensive wash with lysis buffer, His-Ub was eluted from Ni-NTA resin with 50 mM Tris-HCl, pH 7.5, 500 mM NaCl, 300 mM imidazole, 5% glycerol. Fractions containing His-Ub were pooled and concentrated, followed by gel filtration on a Superdex 200 10/300 GL column (GE Healthcare, Chicago, USA) in gel filtration buffer (50 mM Tris-HCl, pH7.5, 10 mM NaCl, 1 mM DTT). Fractions containing His-Ub were pooled and concentrated by a 3 KDa MWCO Ultra centrifugal filter (Amicon), flash frozen with liquid nitrogen, and stored at −80°C before use.
Human ORFs encoding UBA1 (residues 49–1058, NP_003325.2), UBE2G1 (NP_003333.1), UBE2D3 (NP_003331.1), CUL4A (NP_001008895.1) were cloned into pPB-CAG-1xFLAG vector. ORF encoding human RBX1 (NP_055063.1) was cloned into pPB-CAG vector without a tag. […]

The next assay deals with T2, DDB1ΔBPB (Homo sapiens, UniProt Q16531, DEL400-704).
T2 construct: Strep-tag (N); 8xHis (N); made in house; host or cells: Sf9
Put plainly: Differential Scanning Fluorimetry (DSF), DDB1ΔBPB. It counts as binding. The settings on record: 50 µM HQ461. The protocol: CDK12KD/CCNKΔC (WT or G731E/R) and DDB1ΔBPB were diluted to 5 μM with DSF assay buffer (50 mM HEPES pH 7.5, 300 mM NaCl, 0.5 mM TCEP). 50 µM HQ461 or 10 µM HBx was added to diluted proteins (final DMSO concentration 0.25%). Twenty µL of protein-compound mix was aliquoted per qPCR tube (Labtidebiotech, Shanghai, China, P01-0803E) followed by the addition of 5 µL of 1:400 diluted SYPRO Orange (Sigma-Aldrich, MO, USA, S5692). After incubation on ice for 20 min, fluorescence measurements were performed using a Bio-Rad CFX96 Realtime PCR instrument. During the DSF experiment, the temperature was increased from 10°C to 95°C at an increment of 0.5 °C with equilibration time of 10 s at each temperature prior to measurement. Tm was defined as the temperature corresponding to the maximum value of the first derivative of fluorescence transition.
On the technique in general: In DSF a fluorescence change marks the thermal transition of the protein.

A further assay has as its system CCNK-luc reporter. Put plainly: CCNK-luc degradation assay. In kind it is cell-based, Homo sapiens. The note with it: 8 hr. The protocol: The ORF for CCNK was fused with the firefly luciferase (luc) sequence and inserted into the pCDNA3.1 vector. For setting up cells for co-transfection, 0.6 million 293 T cells were seeded per well in 6-well plates and allowed to attach to plates overnight. These cells were then transfected with 50 ng of pCDNA3.1-3xFLAG-CDK12 kinase domain, 50 ng of pCDNA3.1-CCNK-luc, and 400 ng of the empty pCDNA3.1 vector. Twenty-four hours later, transfected cells were dissociated by trypsin digestion and then plated in 96-well white plates. After overnight attachments, cells were then treated with HQ461 and its analog derivatives for 8 hr followed by measurements of luciferase activity with Bright-Glo luciferase assay system (Promega, Madison, USA). Half maximal CCNK-degradation concentrations (DC50) of HQ461 and its active analogs were interpolated by curve fitting with GraphPad Prism using baseline correction (by normalizing to DMSO control), the asymmetric (five parameter) equation, and least squares fit.

T1 sequence (Q9NYV4 1-1481 isoform Q9NYV4-2): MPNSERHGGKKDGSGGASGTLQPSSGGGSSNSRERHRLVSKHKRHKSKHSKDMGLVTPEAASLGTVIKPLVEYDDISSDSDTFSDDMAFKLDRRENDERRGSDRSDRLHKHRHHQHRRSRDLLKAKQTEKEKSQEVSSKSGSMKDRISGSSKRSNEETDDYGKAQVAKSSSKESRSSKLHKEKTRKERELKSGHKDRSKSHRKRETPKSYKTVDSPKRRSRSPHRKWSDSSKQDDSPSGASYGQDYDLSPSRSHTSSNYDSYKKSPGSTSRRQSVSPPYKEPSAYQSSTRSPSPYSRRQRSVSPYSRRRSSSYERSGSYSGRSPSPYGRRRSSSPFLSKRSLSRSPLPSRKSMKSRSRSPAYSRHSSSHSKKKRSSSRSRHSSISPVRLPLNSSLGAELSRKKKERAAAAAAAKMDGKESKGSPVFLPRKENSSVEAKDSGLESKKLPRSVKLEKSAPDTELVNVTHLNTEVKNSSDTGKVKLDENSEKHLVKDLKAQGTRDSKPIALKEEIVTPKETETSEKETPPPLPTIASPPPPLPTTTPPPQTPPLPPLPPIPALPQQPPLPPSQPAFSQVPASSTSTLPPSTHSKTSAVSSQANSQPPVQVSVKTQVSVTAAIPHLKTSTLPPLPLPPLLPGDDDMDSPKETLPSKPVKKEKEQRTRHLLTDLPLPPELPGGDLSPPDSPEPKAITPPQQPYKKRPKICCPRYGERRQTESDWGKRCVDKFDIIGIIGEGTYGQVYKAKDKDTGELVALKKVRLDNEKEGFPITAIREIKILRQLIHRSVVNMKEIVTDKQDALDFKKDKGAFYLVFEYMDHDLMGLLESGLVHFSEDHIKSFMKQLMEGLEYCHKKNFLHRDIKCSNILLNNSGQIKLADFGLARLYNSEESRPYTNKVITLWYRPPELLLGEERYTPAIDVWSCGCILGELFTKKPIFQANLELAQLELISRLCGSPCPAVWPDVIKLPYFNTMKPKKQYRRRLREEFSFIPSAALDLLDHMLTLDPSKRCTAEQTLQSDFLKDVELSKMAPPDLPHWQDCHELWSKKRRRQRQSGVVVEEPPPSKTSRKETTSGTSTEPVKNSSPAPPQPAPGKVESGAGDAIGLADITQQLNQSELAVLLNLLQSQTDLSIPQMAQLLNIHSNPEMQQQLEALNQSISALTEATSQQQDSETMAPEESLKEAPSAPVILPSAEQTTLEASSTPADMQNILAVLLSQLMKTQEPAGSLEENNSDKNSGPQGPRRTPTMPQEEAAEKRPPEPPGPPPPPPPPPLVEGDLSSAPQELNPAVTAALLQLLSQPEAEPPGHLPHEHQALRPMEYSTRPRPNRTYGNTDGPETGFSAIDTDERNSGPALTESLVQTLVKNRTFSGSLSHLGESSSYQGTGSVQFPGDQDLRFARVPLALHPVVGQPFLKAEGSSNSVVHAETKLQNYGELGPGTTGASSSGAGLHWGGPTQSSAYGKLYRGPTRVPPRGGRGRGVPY
T1 sequence (O75909 whole entry partner): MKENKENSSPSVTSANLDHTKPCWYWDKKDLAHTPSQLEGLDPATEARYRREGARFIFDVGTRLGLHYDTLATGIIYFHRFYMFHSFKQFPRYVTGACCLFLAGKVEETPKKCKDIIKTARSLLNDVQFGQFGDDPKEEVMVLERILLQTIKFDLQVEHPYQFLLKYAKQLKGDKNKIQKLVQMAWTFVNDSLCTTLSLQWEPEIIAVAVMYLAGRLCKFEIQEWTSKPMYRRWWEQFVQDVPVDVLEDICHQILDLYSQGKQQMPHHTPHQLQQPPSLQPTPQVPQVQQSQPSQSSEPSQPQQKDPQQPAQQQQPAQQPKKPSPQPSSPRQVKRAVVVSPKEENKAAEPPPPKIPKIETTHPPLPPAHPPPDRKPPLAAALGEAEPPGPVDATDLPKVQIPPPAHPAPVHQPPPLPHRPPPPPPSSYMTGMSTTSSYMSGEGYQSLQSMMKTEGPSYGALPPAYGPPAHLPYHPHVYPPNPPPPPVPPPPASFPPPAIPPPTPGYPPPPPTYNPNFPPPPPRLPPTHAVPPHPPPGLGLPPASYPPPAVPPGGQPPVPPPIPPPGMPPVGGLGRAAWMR
T1 sequence (Q16531 whole entry partner): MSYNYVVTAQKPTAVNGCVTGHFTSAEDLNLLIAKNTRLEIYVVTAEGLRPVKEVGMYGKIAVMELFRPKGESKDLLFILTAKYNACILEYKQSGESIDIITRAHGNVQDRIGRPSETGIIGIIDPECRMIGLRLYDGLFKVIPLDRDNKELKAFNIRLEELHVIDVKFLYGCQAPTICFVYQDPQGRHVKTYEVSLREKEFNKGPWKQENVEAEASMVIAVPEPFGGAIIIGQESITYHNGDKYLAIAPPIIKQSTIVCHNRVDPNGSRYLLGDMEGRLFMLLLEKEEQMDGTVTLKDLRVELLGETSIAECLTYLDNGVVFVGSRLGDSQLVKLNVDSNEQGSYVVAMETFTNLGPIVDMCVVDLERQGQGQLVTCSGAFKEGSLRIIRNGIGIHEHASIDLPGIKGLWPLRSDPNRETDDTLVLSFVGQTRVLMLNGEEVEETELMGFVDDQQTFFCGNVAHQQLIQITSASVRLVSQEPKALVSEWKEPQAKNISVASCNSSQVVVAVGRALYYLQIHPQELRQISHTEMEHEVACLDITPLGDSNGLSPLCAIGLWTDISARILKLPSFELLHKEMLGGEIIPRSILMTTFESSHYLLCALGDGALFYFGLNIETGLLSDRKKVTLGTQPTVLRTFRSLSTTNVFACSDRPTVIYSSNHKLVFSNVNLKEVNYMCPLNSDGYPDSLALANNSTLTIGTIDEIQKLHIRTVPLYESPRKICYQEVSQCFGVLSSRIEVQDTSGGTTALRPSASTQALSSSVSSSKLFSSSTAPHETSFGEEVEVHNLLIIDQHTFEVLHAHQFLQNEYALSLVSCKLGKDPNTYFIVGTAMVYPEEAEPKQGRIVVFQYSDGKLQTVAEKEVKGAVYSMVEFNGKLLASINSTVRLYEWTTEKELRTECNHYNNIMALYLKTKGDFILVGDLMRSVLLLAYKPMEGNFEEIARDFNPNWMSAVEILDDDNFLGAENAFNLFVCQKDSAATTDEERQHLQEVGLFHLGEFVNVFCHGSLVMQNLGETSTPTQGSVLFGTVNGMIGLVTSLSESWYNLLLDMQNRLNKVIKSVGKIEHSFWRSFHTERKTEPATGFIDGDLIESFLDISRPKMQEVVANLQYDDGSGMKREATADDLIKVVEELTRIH
T1 sequence (Q13619 whole entry partner): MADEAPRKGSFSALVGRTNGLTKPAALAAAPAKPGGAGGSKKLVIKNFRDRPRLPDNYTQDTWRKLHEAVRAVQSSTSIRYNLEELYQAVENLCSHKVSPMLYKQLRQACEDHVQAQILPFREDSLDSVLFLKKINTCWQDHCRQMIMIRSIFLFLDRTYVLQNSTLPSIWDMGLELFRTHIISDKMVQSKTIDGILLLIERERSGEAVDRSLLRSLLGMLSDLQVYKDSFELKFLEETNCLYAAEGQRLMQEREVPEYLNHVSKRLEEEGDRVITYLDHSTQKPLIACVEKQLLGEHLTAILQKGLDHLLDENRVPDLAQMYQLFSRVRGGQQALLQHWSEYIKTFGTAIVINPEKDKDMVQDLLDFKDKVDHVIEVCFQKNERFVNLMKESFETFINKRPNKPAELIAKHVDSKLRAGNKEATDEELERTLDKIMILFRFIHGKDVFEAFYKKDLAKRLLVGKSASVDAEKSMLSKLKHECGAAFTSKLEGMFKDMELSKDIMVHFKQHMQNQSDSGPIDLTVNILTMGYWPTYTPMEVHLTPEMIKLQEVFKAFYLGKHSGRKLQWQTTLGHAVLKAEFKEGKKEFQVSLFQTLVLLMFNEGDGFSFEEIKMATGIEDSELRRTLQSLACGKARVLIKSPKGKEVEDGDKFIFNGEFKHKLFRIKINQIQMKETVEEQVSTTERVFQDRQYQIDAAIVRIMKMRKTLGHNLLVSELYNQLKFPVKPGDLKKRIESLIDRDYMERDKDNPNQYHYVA
T1 sequence (P62877 whole entry partner): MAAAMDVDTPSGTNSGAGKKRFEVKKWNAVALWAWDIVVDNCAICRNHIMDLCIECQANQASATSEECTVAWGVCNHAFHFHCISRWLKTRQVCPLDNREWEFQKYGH
T2 sequence (Q16531 with tags, fused parts or gaps DEL400-704): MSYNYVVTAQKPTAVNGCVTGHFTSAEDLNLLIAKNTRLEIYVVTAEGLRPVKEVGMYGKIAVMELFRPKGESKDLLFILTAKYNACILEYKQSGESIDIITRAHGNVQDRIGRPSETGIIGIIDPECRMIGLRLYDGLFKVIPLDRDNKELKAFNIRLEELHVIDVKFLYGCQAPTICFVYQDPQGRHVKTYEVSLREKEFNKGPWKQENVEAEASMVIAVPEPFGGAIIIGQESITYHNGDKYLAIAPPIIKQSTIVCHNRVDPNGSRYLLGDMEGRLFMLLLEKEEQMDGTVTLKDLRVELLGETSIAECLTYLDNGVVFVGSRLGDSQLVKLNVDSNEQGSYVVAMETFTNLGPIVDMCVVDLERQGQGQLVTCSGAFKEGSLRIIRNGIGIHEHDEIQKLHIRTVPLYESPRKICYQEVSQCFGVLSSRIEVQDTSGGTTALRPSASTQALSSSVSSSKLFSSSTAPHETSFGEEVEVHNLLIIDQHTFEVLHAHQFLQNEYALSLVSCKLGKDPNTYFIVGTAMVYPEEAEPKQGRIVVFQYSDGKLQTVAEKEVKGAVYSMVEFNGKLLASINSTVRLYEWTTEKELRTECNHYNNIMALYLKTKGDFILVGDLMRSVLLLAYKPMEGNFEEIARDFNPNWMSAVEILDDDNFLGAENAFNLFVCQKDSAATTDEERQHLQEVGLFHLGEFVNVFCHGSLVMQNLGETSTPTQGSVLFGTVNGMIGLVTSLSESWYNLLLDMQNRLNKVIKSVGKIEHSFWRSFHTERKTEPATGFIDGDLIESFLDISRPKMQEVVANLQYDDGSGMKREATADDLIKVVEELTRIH

Take `Cc1cccc(Nc2nc(CC(=O)Nc3ncc(C)s3)cs2)n1` [HQ461, 2-(2-((6-methylpyridin-2-yl)amino)thiazol-4-yl)-N-(5-methylthiazol-2-yl)acetamide]: the in vitro polyubiquitination result in assay [1] was “polyubiquitination of CCNK but not CDK12”. In addition, at DDB1ΔBPB, the “thermal stability of DDB1ΔBPB” value was “did not change the thermal stability”. The “Dmax (10 μM), percentage of CCNK degradation relative to DMSO control” value in the assay on CCNK-luc reporter (10 µM) is 86.0%. Besides, the DC50 with CCNK-luc reporter (293T, read-out: DC50 (half maximal CCNK-degradation concentration)) is 132 nM.
